Results: patent US8859513B2, “Use of 1-beta-D-ribofuranosyl-1H-1,2,4-triazole-3-carboxamide for the treatment of infectious salmon anemia” (Laboratorio de Diagnostico Gam, S.A., priority 2010, dated 2014)
Values after ≈ are worked out from the molar mass of the structure shown. Read-outs that look alike come from different tables or passages of the source.

Tests used:
[1] = Toxicity in healthy uninfected smolt fish (tank C2), oral medicated feed; details: tank C2, dose of 1600 μg/mL (so in the source), normal 44-64%
[2] = patients treated with Rebetol; cited from earlier work
IPNV = details: cited from earlier work
in vitro = details: Atlantic salmon
RNA viruses = details: regularly shown, in general; read-out: EC50 values (effective concentration 50%); cited from earlier work
ISA virus [3] = details: for hematocrit: untreated infected C3 42.1%
[4] = tested on: VHSV virus (Viral Hemorrhagic Septicemia Virus); details: cited from earlier work
ISA virus [5] = details: 400 μg/Kg intraperitoneal
ISA virus [6] = test: Inhibition assay of the replicative cycle of ISAV in SHK-1 cells (real-time RT-PCR of supernatant); assay type: cell-based, Infectious Salmon Anemia Virus

NC(=O)c1ncn([C@@H]2O[C@H](CO)[C@@H](O)[C@H]2O)n1 [ribavirin, 1-beta-D-ribofuranosyl-1H-1,2,4-triazole-3-carboxamide]
average hematocrit [1]: 54%
primary toxicity [2]: triggers hemolytic anemia
effect of the higher dose on rate of death (IPNV; 400 μg): produced no greater decrease in the rate of death
decrease in rate of dead fish (IPNV; bath exposure once during two hours, increasing concentrations): about 5%
CC50 at 3 days (in vitro): > 400 µg/mL
EC50 (RNA viruses): ≥ 1 µM
viral load in dead fish (ISA virus [3]; highest dose (T1) compared with T2 and untreated C3, FIG. 8): significantly lower
viral load in intraperitoneally infected fish (ISA virus [3]; highest dose (T1), FIG. 9): lower
signs at necropsy (ISA virus [3]; infected treated fish of tanks T1 and T2, FIGS. 14 and 15): mild inflammatory signs
viral load in intraperitoneally infected fish versus untreated (C3) (ISA virus [3]; lowest dose (T2), FIG. 9): practically the same
hematocrit (ISA virus [3]; tank T1, dose 800 μg/mL (so in the source)): ~45%
hematocrit (ISA virus [3]; tank T2, dose 400 μg/mL (so in the source)): ~45%
viral load versus untreated fish (C3) (ISA virus [3]; treated fish T1 (800 μg/kg) and T2 (400 μg/kg), heart, real-time RT-PCR): in all cases lower than that of the untreated fish
RNA inhibition ([4]; 25 μg/ml added at 0 hours post infection, at 10 hours post infection): 99.8%
inhibition of the virus ([4]; EPC cells, concentrations of 5, 10 and 25 μg/ml): strong inhibition
condition of the analyzed organs during necropsies (ISA virus [5]): slight improvement
viral load over treatment days (ISA virus [5]; heart, FIG. 17): downward trend
EC50 (ISA virus [6]; Infectious salmon anemia virus, 72 h, read-out: concentration which inhibits 50% of ISA virus replication (EC50)): ~0.4 µg/mL (≈ 1.64 µM)

CCOC(=O)C1=C[C@@H](OC(CC)CC)[C@H](NC(C)=O)[C@@H](N)C1 [oseltamivir]
inhibition of the replication of ISA virus (ISA virus [6]; concentrations as high as 300 μg/mL, FIG. 1): no more than 60%

O=C(O)C1=C[C@@H](O)[C@@H](O)[C@H](O)C1 [shikimic acid]
viral replication inhibition (ISA virus [6]; up to concentrations of 300 μg/ml, FIG. 2): no viral replication inhibition
